The source of these data is publication PMC4880976, “Pharmacologic rationale for the NK1R antagonist, aprepitant as adjunctive therapy in HIV” (Journal of Translational Medicine, 2016).

For series [1] the following is noted: Table 1, literature values, no reference given; cited from earlier work.
For series [2] the following is noted: cited from earlier work.
Series [3] relates to serotonin reuptake. More on the design: method as in PMID 23702798, PMID 25113527. The conditions noted are these: at 10 μM; cited from earlier work.
In series [4] the test system is 5-HT2C receptor. Also noted: method as in PMID 23702798, PMID 25113527. The conditions noted are these: cited from earlier work.
The subject of series [5] is GABAA receptor. More on the design: method as in PMID 23702798, PMID 25113527. The conditions noted are these: cited from earlier work.
Series [6] relates to vesicular monoamine transporter 2 (VMAT2). Also noted: method as in PMID 23702798, PMID 25113527. The conditions noted are these: at 10 μM; cited from earlier work.
Series [7] relates to HIV. The conditions noted are these: Table 1, reference not given; cited from earlier work.
In series [8] the target is 5-HT2A receptor. More on the design: method as in PMID 23702798, PMID 25113527. The conditions noted are these: partial agonist; cited from earlier work.
Series [9] has as its system dopamine reuptake. Also noted: method as in PMID 23702798, PMID 25113527. The conditions noted are these: at 10 μM; cited from earlier work.
Series [10] concerns ATP-dependent K+ currents of mouse pancreatic B-cells. The conditions noted are these: in the absence of albumin; Table 1, reference not given; read-out: concentration blocking currents half maximally; cited from earlier work.
In series [11] the test system is CD163 cleavage in human monocytes. Briefly: sCD163 release from human monocytes, ELISA. Format: cell-based. The conditions noted are these: SP, time- and dose-dependent, p < 0.001. On the procedure:
sCD163 was measured by ELISA (Trillium Diagnostics, Brewer, Maine, USA) according to manufacturer’s recommendations.
Fig. 7 SP induces cleavage of CD163 in monocytes. sCD163 was measured by ELISA in the supernatant of freshly isolated human monocytes treated with SP and aprepitant as indicated. a Time course of cells treated with varying doses of SP as indicated. *p < 0.001 control versus 5 and 10 μM of SP. b Cells were pre-incubated with aprepitant (10 μM) for 30 min and then treated with SP (5 μM) for 60 min. *p < 0.001 SP versus control, p = 0.004 SP versus SP + aprepitant. Results are presented as mean ± SD from three independent experiments
Background: ELISA stands for enzyme-linked immunosorbent assay.

For series [12], the system named is human PBMC. Briefly: SP dependent cytokine and chemokine production by PBMC, multiplex assay. Type of series: cell-based. The conditions noted are these: SP 10 µM, 24 h. How it is done: (§1) For cytokine and PD-1 assessment experiments freshly isolated peripheral blood mononuclear cell (PBMC) purchased from the Human Immunology Core Facility of The University of Pennsylvania School of Medicine (Philadelphia, PA) were cultured in RPMI medium supplemented with 10 % FBS overnight. Some cultures were treated with SP (10 µM) aprepitant (10 µM) or DMSO (0.001 %, vehicle for aprepitant). Cytokine concentrations were measured in supernatants using multiplex assay 24 h after SP/aprepitant treatment (see below). For PD-1 expression SP and aprepitant were added at day 0 and PD-1 expression was monitored daily for up to 8 days using flow cytometry.
Concentrations of pro-inflammatory cytokines and chemokines in supernatants of human PBMC were measured using human Cytokine/Chemokine Magnetic Bead Panel—Premixed 30 Plex, HCYTMAG-60K-PX30 (Millipore, Billerica, MA, USA) as recommended by the manufacturers.
Fig. 5 SP dependent up regulation of cytokine and chemokine production by human PBMC* is inhibited by aprepitant. *Freshly isolated PBMC from normal donors were incubated for 24 h with SP and/or Aprepitant (10 µM each) as indicated. Control cultures were either left untreated of incubated with DMSO (vehicle for aprepitant). Pro-inflammatory markers were measured in supernatants using MILLIPORE Human Cytokine/Chemokine Magnetic Bead Panel.

Series [13] deals with PD-1 expression on CD3+CD4+ cells. Briefly: PD-1 expression on CD4+ T-cells in PBMC, flow cytometry. Format: cell-based, human. How it is done:
as §1
Fig. 6 Aprepitant blocks SP induced PD-1 expression on CD4+ T-cells. PBMC were treated for 7 days with SP and aprepitant as indicated. PD-1 expression was measured by flow cytometry on CD3+CD4+ cells and expressed as percentage of PD-1 positive cells. a Results from representative experiment are shown. First two columns show gaiting strategy. […] Median (spread): control 14.7 (11.1), SP treated 38.4 (60.6), SP + aprepitant treated 7.8 (6.0) TEXT PRINTED IN THE PICTURE: (a) SP: PD1+ 67.1 | (a) SP + aprepitant: PD1+ 9.53 DOUBTS OF THE COPYIST ABOUT THIS PICTURE: SP + aprepitant, PD1+ 9.53: the sign after PD1 looks like '+' or '−' because it touches the gate line / SP + aprepitant, 9.53: small print, so the digits 9, 5 and 3 are not fully certain / The rows 'no staining' (PD1+ 0.079) and 'control' (PD1+ 11.4) were left out because they are not substances
For orientation: In flow cytometry, cells or beads pass a laser one at a time.

Where no end group is shown, it is not given here.

Take `CCC[C@@H]1C[C@@H](C(=O)N[C@@H]([C@H]2O[C@H](SC)[C@H](O)[C@@H](O)[C@H]2O)[C@H](C)Cl)N(C)C1` [Clindamycin]: the PB % result in [1] is reported as “Clindamycin (95 %)”.

Take `CN1C(=O)CN=C(c2ccccc2)c2cc(Cl)ccc21` [Diazepam]: the target concentrations in [2] (Table 1 footnote, no reference given) is listed as under 1 µg/mL. Further, the PB % entry in series [1] was “Diazepam+ (98.5 %)”.

A word on the Ki: it is the equilibrium dissociation constant of an inhibitor or competing ligand from its target. With `O=C1Nc2ccc(Cl)cc2[C@@](C#CC2CC2)(C(F)(F)F)O1` [Efavirenz], the serotonin reuptake inhibition in series [3] is 50%. The “action at 5-HT2C receptor” value in [4] was “ligand”. The “action at GABAA receptor” value in [5] is recorded as “positive allosteric modulator”. In addition, in series [6], the VMAT2 inhibition is 60%. Also, in series [7], the “Plasma concentrations that appear to suppress HIV replication” value is given as “Plasma concentrations above 2 mg/L appear to suppress HIV replication”. Moreover, the inhibition constant Ki in [8] is 2.2 µM. The dopamine reuptake inhibition in series [9] is 75%.

Take `NS(=O)(=O)c1cc(C(=O)O)c(NCc2ccco2)cc1Cl` [Furosemide]: the PB % entry in series [1] was “Furosemide (91–99 %)”.

For the compound `O=C1NC(=O)C(c2ccccc2)(c2ccccc2)N1` [Phenytoin], in [2] (in vivo), the “clinically effective serum trough concentration” value was “The clinically effective serum trough concentration is usually 40 to 80 µmol/L”.

`CCCCNC(=O)NS(=O)(=O)c1ccc(C)cc1` [Tolbutamide]: the IC50 in series [10] was 4.1 µM.

Turning to `CCCC(CCC)C(=O)O` [Valproic Acid], the “therapeutic range (total)” value in series [2] (in vivo) is reported as “The therapeutic range for valproic acid (total) is 50–125 µg/mL”.

For the compound “substance P (RPKPQQFFGLM; ends and bridges not checked; UniProt P20366 58-68, looked up) [SP, substance P, ligand of its preferring receptor NK1R]”, the “release of sCD163” value in series [11] is “fast release”. Further, in series [12], the “production of G-CSF, IL-6, IL-8, TNFα and MIP-1α” value is given as “upregulated”; the “production of MCP-1” value is listed as “increased production”. Further, in [13] (SP treated, 7 days, five experiments, control 14.7 (11.1)), the “percentage of PD-1 positive CD4 cells, median (spread)” value is recorded as 38.4 (60.6) %. The “PD-1 expression by CD4 T-cells” value in series [13] (incubation of PBMC with SP, 6–8 days, p = 0.03) is listed as “increased PD-1 expression”.
